In patent US7297353B2, “Use of anemonin for treating aseptic inflammations” (priority 2000, dated 2007):

Key:
pain induced by formalin = assay: Analgesic test with formalin; format: in vivo, mice; settings: 25 mg/kg intraperitoneal
Procedure: Dolantin was intraperitoneal injected and other groups received test medication on left and right hind feet. 15 minutes after administration, 0.03 ml of 2.5% formalin was given to each mouse by subcutaneous injection on right hind foot and then the test medication was applied again. Then, the number of times of each mouse's licking its right hind foot in 15 minutes was counted.

[1] = tested on: pain induced by hot plate; assay: Analgesic test with hot plate; format: in vivo, mice; settings: 25 mg/kg intraperitoneal
Procedure: This experiment included 4 groups of female mice, totaling 64 and each weighed 18-22 g, selected for normal pain reaction with 55° C. hot plate: high concentration group, low concentration group, dolantin group and control group. The route of administration and dosage are the same as described in the test with formalin. Dolantin was intraperitoneal injected and other groups received test medication on left and right hind feet and abdomen. 30, 60 and 90 minutes after the administration, the mice were put on a 55° C. hot plate and the latent time of each mouse for pain reaction was determined.

[2] = tested on: dimethylbenene-induced ear swelling; assay: Acute ear edema of mice induced by dimethylbenene; format: in vivo; settings: positive control applied on ear; two hours after dimethylbenene
Procedure: The mice were randomly divided into 5 groups. Thirty minutes and sixty minutes after applying dimethylbenene (50 μl) to the anterior and posterior surfaces of the right ear, 25% ethanol (50 μl), the linimene solutions of anemonin (0.05, 0.5, 5 mg/ml, 50 μl) and FAA (a positive control) were applied on the same ears of mice respectively. The left ear was considered as control. Two hours after dimethylbenene application, mice were killed and both ears were removed. Circular sections were taken, using a 9 mm-diameter borer, and weighed. The increase in weight caused by the irritant was measured by subtracting the weight of the untreated left ear section from that of the treated right ear section.

[3] = tested on: carrageenan-induced paw edema; assay: Acute hind paw edema of rats induced by carrageenan; format: in vivo; settings: for Paw edema: FAA group
Procedure: The animals were injected subcutaneously with carrageenan (10 μl of 1% solution in saline) into the right paw. Anti-inflammatory properties of external anemonin were studied by applying with various liniment solution of anemonin (0.125, 0.5, 2 mg/ml, 0.5 ml) for 2 h immediately after administration of carrageenan. The rats of control group were treated with the same volume of solvent (25% ethanol). The paw volumes of rats were measured at 0, 2 h, 3 h, 4 h, 5 h, 6 h after injection of carrageenan. The paw edema was represented by subtracting the volume of the untreated same paw from that of the treated paw.

[4] = tested on: swelling of rat's hind foot; assay: Anti-swelling test on rat's hind foot (carrageenan); format: in vivo, rats; settings: 0.025% ointment
Procedure: This experiment included 4 groups of rats totaling 40 and each weighed 200-250 g: high concentration group, low concentration group (12.5 mg/25 ml, 6.25 mg/25 ml respectively), fluocinolone acetonide group, control group (the same volume of 25% ethanol). Fluocinolone acetonide was given using a 0.025% ointment, and other groups received corresponding medicament on the left and right hind feet prior to subcutaneous injection of 0.1 ml of 1% carrageenan on the metatarsus of each rat's right hind foot. Immediately after the administration of carrageenan, corresponding medicament was applied on the right hind foot. The metatarsal perimeters of right and left hind foot of each rat were measured 2, 3, 4, and 5 hours after the final administration. The difference between the metatarsal perimeters of the two feet of each rat is taken as a measure of swelling. Corresponding medicament was applied again on rat's right hind foot after each measurement.

skin = assay: Skin allergic test; settings: guinea pigs

Structure (SMILES): CCOC(=O)C1(c2ccccc2)CCN(C)CC1 [Dolantin]
- Rate of inhibition(%) (pain induced by formalin): 100%
- Times of licking hind feet (pain induced by formalin; 15 minutes): 0.00 ± 0.00
- Increase of pain threshold (%) ([1]; 30 min after administration): 66%
- Latent time for pain reaction ([1]; 30 min after administration): 49.86 ± 5.23 s
- Increase of pain threshold (%) ([1]; 60 min after administration): 80%
- Latent time for pain reaction ([1]; 60 min after administration): 54.29 ± 9.27 s
- Increase of pain threshold (%) ([1]; 90 min after administration): 94%
- Latent time for pain reaction ([1]; 90 min after administration): 58.31 ± 11.23 s

Structure (SMILES): CC(=O)OCC(=O)[C@@]12OC(C)(C)O[C@@H]1C[C@H]1[C@@H]3C[C@H](F)C4=CC(=O)C=C[C@]4(C)[C@@]3(F)[C@@H](O)C[C@@]12C [FAA, Fluocinoloni Acetonidi Acetas, reference compound]
- Ear swellin [2]: 10 ± 1.8 mg
- Paw edema ([3]; 2 h): 0.13 ± 0.05 mL
- Paw edema ([3]; 3 h): 0.09 ± 0.07 mL
- Paw edema ([3]; 4 h): 0.11 ± 0.08 mL
- Paw edema ([3]; 5 h): 0.09 ± 0.07 mL
- Paw edema ([3]; 6 h): 0.09 ± 0.11 mL
- edema formation ([3]; steroidal anti-inflammatory drug, positive control): significantly inhibited

Structure (SMILES): CC1(C)O[C@@H]2C[C@H]3[C@@H]4C[C@H](F)C5=CC(=O)C=C[C@]5(C)[C@@]4(F)[C@@H](O)C[C@]3(C)[C@]2(C(=O)CO)O1 [Fluocinolone acetonide]
- Degree of tumefaction (cm) ([4]; 2 hours): 0.91 ± 0.20 cm
- Degree of tumefaction (cm) ([4]; 3 hours): 0.92 ± 0.13 cm
- Degree of tumefaction (cm) ([4]; 4 hours): 0.90 ± 0.18 cm
- Degree of tumefaction (cm) ([4]; 5 hours): 0.92 cm

Structure (SMILES): O=[N+]([O-])c1ccc(Cl)c([N+](=O)[O-])c1 [positive control, 2,4-dinitrochlorobenzene]
- allergenic intensity (skin): extreme
- allergenic rate (skin): 100%
